Experimental data from ChEMBL document CHEMBL1201862, “PubChem BioAssay data set” (2004).
Active and inactive are the calls of the source.

Experiments:
Genome polyprotein = Genome polyprotein (dengue virus type 2, UniProt P29990); experiment: flavivirus cap methylation enzyme inhibition – biochemical, confirmation dose response, primary screen (AID 588689); format: functional
INS1 = experiment: INS-1E survival protection against cytokine death – cell-based, luminescence, retest, dose response (AID 449756); format: functional; conditions: Rattus norvegicus;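 also: cell death triggered by IL-1 beta plus TNF-alpha plus IFN-gamma mixture; protective hits raise ATP signal compared with cytokine alone wells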
[1] = reduction of Shn3 3'UTR-driven luciferase in osteoblasts – cell-based, Clone20 osteoblasts, firefly luciferase, cherry-picked, dose response (AID 624132); format: functional;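 also: firefly luciferase luminescence from reporter carrying the Shn3 3'UTR in osteoblasts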
[2] = molecular target: 26S proteasome non-ATPase regulatory subunit 14 (Homo sapiens, UniProt O00487); experiment: inhibition of proteasome subunit RPN11 – biochemical, fluorescence polarization, uHTS hits, confirmation (AID 602368); format: functional
26S proteasome non-ATPase regulatory subunit 14, sequence (O00487 whole entry): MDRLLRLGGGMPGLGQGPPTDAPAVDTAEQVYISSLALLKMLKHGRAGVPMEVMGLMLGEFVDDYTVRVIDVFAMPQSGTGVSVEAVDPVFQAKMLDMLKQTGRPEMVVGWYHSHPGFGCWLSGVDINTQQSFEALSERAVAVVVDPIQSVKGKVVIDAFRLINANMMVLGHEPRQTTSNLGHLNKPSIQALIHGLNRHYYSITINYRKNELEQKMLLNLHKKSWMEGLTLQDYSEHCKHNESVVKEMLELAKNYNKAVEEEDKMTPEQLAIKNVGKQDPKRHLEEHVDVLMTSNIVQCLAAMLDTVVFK

[3] = loss of viability in HepG2 cells – cell-based, CellTiter-Glo, cherry-picked, cytotoxicity control for Shn3 inhibitor project, dose response (AID 624134); format: functional
[4] = non-specific 3'UTR reporter inhibition in Clone20-Shn3RL – cell-based, Renilla luciferase, cherry-picked, counter-screen for Shn3 inhibitor project, dose response (AID 624133); format: functional
[5] = molecular target: 72 kDa type IV collagenase (Homo sapiens, UniProt P08253); experiment: Dose Response validation of uHTS RPN11 inhibitor hits using a MMP-2 Fluorescence assay.; format: functional
72 kDa type IV collagenase, sequence (P08253 whole entry): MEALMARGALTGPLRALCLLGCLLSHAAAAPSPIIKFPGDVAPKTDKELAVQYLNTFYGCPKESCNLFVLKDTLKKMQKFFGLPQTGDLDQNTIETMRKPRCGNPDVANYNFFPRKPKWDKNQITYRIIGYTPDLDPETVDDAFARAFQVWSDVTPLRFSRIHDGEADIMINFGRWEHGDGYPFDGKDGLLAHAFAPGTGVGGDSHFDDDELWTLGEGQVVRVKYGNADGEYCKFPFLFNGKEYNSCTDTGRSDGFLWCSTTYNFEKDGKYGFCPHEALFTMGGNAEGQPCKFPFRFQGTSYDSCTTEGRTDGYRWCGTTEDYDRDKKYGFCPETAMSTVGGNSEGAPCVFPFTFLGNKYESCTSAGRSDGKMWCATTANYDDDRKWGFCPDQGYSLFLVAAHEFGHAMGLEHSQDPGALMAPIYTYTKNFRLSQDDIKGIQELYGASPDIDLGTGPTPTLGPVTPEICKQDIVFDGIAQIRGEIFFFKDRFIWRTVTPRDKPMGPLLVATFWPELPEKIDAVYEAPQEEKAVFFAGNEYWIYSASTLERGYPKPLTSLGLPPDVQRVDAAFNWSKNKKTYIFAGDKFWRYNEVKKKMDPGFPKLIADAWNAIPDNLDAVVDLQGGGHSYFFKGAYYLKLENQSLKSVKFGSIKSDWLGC

Prothrombin = Prothrombin (Bos taurus, UniProt P00735); experiment: thrombin protease inhibitors – biochemical, fluorescence polarization, uHTS hits, dose response (AID 602369); format: functional
[6] = molecular target: T1, Sentrin-specific protease 8 (Homo sapiens, UniProt Q96LD8); format: functional
T1 sequence (Q96LD8 whole entry): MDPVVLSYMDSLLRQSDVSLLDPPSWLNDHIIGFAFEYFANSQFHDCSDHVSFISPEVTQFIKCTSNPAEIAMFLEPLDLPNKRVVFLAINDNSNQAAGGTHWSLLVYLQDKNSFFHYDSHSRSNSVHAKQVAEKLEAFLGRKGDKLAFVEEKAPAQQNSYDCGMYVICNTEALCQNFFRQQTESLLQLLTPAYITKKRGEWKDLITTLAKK

[7] = molecular target: T1, Sentrin-specific protease 8; format: functional; remark: listed apart in the source
[8] = molecular target: T2, Endoribonuclease toxin MazF (Escherichia coli K-12, UniProt P0AE70); experiment: activation of MazEF endoribonuclease cleavage – biochemical, fluorescence, single-stranded RNA substrate, uHTS hits, dose response (AID 588481); format: functional
T2 sequence (P0AE70 whole entry): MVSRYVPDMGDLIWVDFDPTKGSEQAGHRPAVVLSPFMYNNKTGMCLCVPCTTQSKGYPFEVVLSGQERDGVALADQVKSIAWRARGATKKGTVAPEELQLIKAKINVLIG

[9] = molecular target: T2, Endoribonuclease toxin MazF; experiment: substrate-only fluorescence increase artefacts – biochemical, single-stranded RNase substrate, counter-screen for MazEF activator project, dose response (AID 588502); format: functional
Cytochrome P450 2C19 = Cytochrome P450 2C19 (Homo sapiens, UniProt P33261); experiment: Cytochrome panel assay with activity outcomes. Panel member name: p450-cyp2c19 Compounds with AC50 equal or less than 10 uM are considered active; format: functional; conditions: read-out: AC50
Cytochrome P450 2C19, sequence (P33261 whole entry): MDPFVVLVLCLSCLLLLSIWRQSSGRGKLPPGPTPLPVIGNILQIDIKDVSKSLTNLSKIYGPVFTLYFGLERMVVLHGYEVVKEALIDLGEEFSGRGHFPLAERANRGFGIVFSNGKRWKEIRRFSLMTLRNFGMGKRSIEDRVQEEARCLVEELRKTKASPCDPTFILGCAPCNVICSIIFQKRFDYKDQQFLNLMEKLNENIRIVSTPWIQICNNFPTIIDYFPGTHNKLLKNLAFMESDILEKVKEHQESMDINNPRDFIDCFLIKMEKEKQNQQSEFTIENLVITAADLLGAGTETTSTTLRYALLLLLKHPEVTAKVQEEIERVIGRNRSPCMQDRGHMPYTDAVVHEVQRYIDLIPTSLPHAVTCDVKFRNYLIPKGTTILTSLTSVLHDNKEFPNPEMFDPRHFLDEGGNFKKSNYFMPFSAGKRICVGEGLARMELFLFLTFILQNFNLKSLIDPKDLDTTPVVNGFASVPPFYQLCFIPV

Cytochrome P450 1A2 = molecular target: T3, Cytochrome P450 1A2 (Homo sapiens, UniProt P05177);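 also: PubChem cytochrome P450 panel assay, CYP1A2 panel member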
T3 sequence (P05177 whole entry): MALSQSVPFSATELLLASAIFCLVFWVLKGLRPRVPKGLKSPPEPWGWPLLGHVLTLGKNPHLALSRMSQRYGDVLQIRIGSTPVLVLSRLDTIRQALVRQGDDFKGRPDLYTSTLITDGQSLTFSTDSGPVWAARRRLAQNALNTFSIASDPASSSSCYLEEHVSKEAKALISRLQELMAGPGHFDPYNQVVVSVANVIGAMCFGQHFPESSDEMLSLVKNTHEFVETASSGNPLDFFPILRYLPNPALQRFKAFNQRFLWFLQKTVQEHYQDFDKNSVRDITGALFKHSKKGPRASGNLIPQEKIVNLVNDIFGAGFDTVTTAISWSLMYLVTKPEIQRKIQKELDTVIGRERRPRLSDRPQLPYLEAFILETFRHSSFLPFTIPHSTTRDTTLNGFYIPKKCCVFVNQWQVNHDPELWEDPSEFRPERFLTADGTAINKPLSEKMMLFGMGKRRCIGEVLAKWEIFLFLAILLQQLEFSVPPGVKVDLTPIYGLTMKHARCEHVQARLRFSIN

Cytochrome P450 2C9 = Cytochrome P450 2C9 (Homo sapiens, UniProt P11712)
Cytochrome P450 2C9, sequence (P11712 whole entry): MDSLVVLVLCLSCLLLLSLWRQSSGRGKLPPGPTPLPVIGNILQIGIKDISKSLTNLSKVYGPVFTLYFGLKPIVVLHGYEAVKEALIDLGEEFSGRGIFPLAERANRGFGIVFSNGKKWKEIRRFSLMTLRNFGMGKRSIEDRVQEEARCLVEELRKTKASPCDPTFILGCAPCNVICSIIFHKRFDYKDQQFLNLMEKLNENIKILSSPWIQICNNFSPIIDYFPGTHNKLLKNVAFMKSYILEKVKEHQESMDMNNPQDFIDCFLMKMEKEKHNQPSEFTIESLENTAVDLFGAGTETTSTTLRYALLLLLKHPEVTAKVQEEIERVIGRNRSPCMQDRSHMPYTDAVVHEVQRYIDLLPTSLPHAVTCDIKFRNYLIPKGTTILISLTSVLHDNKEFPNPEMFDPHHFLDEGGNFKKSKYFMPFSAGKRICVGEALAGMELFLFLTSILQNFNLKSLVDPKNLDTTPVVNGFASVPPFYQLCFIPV

[10] = molecular target: T4, Corticotropin-releasing factor receptor 2/Corticotropin-releasing factor-binding protein (Homo sapiens, UniProt P24387+Q13324); experiment: Dose Response confirmation of uHTS hits for small molecule antagonists of the CRF-binding protein and CRF-R2 receptor complex.; format: functional; conditions: read-out: IC50_Mean
T4 sequence (Q13324 whole entry): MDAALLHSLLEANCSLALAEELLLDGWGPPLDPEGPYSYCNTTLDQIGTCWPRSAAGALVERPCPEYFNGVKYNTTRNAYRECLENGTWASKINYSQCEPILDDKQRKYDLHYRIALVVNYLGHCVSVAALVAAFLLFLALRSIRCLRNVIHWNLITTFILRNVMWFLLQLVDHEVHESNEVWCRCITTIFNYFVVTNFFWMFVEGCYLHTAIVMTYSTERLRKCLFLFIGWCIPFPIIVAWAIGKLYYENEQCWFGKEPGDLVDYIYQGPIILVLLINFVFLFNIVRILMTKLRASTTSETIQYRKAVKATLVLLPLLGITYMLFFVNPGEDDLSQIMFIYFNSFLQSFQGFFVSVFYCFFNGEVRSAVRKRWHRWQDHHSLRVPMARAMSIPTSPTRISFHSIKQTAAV
T4 sequence (P24387 whole entry): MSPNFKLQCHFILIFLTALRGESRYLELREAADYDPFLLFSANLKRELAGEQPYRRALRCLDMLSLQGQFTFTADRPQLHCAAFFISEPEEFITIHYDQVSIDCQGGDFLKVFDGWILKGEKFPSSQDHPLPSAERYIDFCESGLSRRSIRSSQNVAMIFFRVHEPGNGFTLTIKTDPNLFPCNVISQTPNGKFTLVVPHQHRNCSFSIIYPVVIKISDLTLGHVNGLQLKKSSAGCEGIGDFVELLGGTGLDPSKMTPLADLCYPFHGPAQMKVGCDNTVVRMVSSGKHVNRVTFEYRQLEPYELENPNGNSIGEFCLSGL

[11] = molecular target: T4, Corticotropin-releasing factor receptor 2/Corticotropin-releasing factor-binding protein; experiment: activators of CRF receptor 2 with binding protein – uHTS hits, confirmation (AID 602473); format: functional; conditions: read-out: EC50_Mean
[12] = blockers of CRF-binding protein–CRF-R2 complex – cell-based, uHTS hits, 384-well, dose response (AID 651639); format: functional, Homo sapiens; conditions: read-out: IC50_Mean
[13] = molecular target: T5, Ubiquitin-conjugating enzyme E2 N (Homo sapiens, UniProt P61088); format: functional;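 also: Dose-response confirmation in a TR-FRET assay detecting UBC13-driven polyubiquitin chain formation, inhibition measured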
T5 sequence (P61088 whole entry): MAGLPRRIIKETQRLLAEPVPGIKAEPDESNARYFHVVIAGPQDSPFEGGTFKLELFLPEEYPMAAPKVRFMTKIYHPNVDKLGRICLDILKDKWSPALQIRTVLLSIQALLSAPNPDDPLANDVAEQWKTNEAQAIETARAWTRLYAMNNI

[14] = viability of uninfected HEp-2 cells – cell-based, HTS, cytotoxicity control for RSV inhibitor project, dose response (AID 2410); format: functional; conditions: human respiratory syncytial virus
[15] = molecular target: FAD-linked sulfhydryl oxidase ALR (Homo sapiens, UniProt P55789); experiment: ALR-catalysed DTT oxidation blockers – biochemical, H2O2 detection, luminescence, cherry-pick, dose response (AID 493248)
FAD-linked sulfhydryl oxidase ALR, sequence (P55789 whole entry): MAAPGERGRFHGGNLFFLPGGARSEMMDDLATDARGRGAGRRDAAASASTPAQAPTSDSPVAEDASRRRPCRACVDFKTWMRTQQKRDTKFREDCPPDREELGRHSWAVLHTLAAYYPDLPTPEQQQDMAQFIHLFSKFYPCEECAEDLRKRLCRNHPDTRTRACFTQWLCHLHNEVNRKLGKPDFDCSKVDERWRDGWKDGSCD

Large T antigen = Large T antigen (Simian virus 40, UniProt P03070); format: functional, Betapolyomavirus macacae;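 also: Confirmatory-stage PubChem screen for compounds that inhibit SV40 T antigen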
Large T antigen, sequence (P03070 whole entry): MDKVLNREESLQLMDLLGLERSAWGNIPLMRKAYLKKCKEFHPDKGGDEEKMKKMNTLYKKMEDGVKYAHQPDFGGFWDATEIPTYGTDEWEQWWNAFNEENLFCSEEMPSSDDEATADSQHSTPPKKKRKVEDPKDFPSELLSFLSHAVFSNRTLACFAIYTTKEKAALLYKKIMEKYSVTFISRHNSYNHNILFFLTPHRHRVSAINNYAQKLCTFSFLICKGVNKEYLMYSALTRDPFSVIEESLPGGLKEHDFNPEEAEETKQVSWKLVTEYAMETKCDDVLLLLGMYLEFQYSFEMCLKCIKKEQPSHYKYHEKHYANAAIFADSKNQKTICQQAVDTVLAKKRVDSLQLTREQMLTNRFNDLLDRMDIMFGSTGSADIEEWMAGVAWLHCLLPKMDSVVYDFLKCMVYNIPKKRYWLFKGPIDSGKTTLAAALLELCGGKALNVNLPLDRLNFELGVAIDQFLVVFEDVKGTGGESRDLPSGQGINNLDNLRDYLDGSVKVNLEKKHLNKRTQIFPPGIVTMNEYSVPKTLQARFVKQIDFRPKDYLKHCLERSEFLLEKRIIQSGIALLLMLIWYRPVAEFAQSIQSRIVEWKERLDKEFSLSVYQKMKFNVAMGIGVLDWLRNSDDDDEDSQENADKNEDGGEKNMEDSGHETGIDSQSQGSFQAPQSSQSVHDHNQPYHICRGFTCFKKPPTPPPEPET

Cytochrome P450 2D6 = Cytochrome P450 2D6 (Homo sapiens, UniProt P10635);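 also: CYP2D6 member of a cytochrome P450 panel assay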
Cytochrome P450 2D6, sequence (P10635 whole entry): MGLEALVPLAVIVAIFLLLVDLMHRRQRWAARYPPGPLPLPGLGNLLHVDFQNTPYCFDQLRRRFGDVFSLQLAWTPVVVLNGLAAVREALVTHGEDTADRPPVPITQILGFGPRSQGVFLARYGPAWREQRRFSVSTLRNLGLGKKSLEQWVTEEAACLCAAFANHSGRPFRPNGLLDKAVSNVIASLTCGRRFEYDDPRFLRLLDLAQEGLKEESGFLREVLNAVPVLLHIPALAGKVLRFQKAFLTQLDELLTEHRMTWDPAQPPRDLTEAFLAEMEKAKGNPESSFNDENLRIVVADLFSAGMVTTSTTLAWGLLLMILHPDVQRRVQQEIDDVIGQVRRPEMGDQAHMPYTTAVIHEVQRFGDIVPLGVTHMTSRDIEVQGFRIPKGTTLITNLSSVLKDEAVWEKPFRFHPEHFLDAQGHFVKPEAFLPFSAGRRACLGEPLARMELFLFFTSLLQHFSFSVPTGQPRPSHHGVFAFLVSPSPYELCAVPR

Genome polyprotein, sequence (P29990 2492-3391 limits assumed): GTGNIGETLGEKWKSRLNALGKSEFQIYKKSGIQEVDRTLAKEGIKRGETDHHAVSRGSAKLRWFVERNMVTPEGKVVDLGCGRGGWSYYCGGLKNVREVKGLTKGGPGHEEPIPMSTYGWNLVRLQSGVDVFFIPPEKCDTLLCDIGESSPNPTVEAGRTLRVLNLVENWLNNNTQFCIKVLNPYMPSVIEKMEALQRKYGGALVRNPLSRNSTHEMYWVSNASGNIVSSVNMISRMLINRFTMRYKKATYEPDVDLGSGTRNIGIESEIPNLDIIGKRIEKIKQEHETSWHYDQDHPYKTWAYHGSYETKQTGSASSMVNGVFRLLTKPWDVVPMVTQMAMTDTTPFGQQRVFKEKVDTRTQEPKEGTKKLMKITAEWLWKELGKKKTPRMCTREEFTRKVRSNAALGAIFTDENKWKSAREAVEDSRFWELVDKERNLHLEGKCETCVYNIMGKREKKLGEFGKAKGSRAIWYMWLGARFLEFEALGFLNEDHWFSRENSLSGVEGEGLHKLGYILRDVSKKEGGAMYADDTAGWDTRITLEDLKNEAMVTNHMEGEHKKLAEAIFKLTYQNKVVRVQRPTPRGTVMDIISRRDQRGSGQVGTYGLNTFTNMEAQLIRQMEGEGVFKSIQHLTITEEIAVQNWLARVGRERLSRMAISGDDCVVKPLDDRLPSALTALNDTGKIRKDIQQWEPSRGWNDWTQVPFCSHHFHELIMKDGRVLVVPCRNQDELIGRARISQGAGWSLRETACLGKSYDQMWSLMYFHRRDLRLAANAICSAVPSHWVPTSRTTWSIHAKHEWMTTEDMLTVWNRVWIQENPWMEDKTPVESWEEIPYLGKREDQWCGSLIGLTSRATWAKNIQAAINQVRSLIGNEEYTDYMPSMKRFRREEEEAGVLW

Structure (SMILES): O=C1NN(c2ccccc2)C(=O)/C1=C\c1cccc(OC(=O)c2cccs2)c1
- IC50 (Genome polyprotein): 21.2 µM (active)

Structure (SMILES): O=[N+]([O-])c1ccc(Sc2cccc3cccnc23)c([N+](=O)[O-])c1
- AC50 (INS1): 1.18 µM (active)
- AC50 [1]: 1.71 µM (active)
- IC50 [2]: 27.6 µM (active)
- AC50 [3]: > 70 µM (inactive)
- AC50 [4]: 15.2 µM (active)
- IC50 [5]: > 100 µM (inactive)
- IC50 (Prothrombin): > 100 µM (inactive)

Structure (SMILES): CC(NC(=O)COC(=O)c1ccc([N+](=O)[O-])s1)c1ccccc1 (centres undefined)
- IC50 [6]: 6.55 µM (active)
- IC50 [7]: 17.1 µM (active)

Structure (SMILES): CCc1cccc(CC)c1NC(=O)COC(=O)/C(C#N)=C/c1ccc(OC)cc1
- EC50 [8]: > 99 µM (inactive)
- EC50 [9]: > 99 µM (inactive)

Structure (SMILES): Cc1ccc(/C=C2/C(=O)NC(=O)N(CC3CCCO3)C2=O)s1 (centres undefined)
- IC50 (Genome polyprotein): > 100 µM (active)

Structure (SMILES): CC1(C)CC2(CC(C)(C(=O)CSc3nc4ccccc4s3)OC2=O)C(=O)O1 (centres undefined)
- AC50 (Cytochrome P450 2C19): 8.91 µM (inconclusive)
- AC50 (Cytochrome P450 1A2): 28.2 µM (inconclusive)
- AC50 (Cytochrome P450 2C9): inconclusive

Structure (SMILES): C#CCOc1c(Br)cc(/C=C2/C(=O)ON=C2C)cc1OC
- IC50 (Genome polyprotein): > 100 µM (active)

Structure (SMILES): O=C1NC(=O)N(C2CCCCC2)C(=O)/C1=C\C=C\Nc1ccccc1
- EC50 [8]: > 99 µM (inactive)
- EC50 [9]: 9.49 µM (active)

Structure (SMILES): O=C(O)c1ccc2c(c1)C(=O)N(c1ccc(/C=C/C(=O)c3ccccc3)cc1)C2=O
- IC50 (Genome polyprotein): 56.7 µM (active)

Structure (SMILES): C=CCn1c(SCc2c(C)noc2C)nc2sc(C)c(C)c2c1=O
- IC50 [10]: < 0.368 µM (active)
- EC50 [11]: > 53 µM (inactive)
- IC50 [12]: > 20 µM (inactive)

Structure (SMILES): CCOC(=O)c1c(NC(=O)Nc2ccc(C)cc2)sc2c1CCN(C)C2
- EC50 [8]: > 99 µM (inactive)
- EC50 [9]: > 99 µM (inactive)

Structure (SMILES): CC(C)n1ncc2c(C(=O)Nc3ccc(S(N)(=O)=O)cc3)cc(C3CC3)nc21
- IC50 [13]: > 20 µM (inactive)
- IC50 [2]: 6.85 µM (active)
- IC50 [5]: > 100 µM (inactive)
- IC50 (Prothrombin): 73.6 µM (active)

Structure (SMILES): COc1ccc(-c2nnc(SC)nc2-c2ccc(OC)c([N+](=O)[O-])c2)cc1[N+](=O)[O-]
- IC50 [6]: > 100 µM (inactive)
- IC50 [7]: 46.9 µM (active)

Structure (SMILES): COc1cccc(NC(=S)NC(Cc2ccccc2)c2ccccc2)c1 (centres undefined)
- IC50 [10]: 3.35 µM (active)
- EC50 [11]: > 53 µM (inactive)
- IC50 [12]: 2.73 µM (active)

Structure (SMILES): Cc1nn(-c2ccccc2)c(C)c1/C=N/n1c(S)nnc1-c1ccccc1Br
- CC50 [14]: 23.2 µM (active)
- AC50 [15]: 3.44 µM (active)
- IC50 [10]: 3.92 µM (active)
- EC50 [11]: > 53 µM (inactive)
- IC50 [12]: 10.9 µM (active)

Structure (SMILES): CC/C(=N/Nc1cccc(C)c1)c1cnnc(SC)n1
- EC50 [8]: > 99 µM (inactive)
- EC50 [9]: > 99 µM (inactive)

Structure (SMILES): Cc1ccc(CO/N=C\Cc2snc(Sc3ncc(C(F)(F)F)cc3Cl)c2C#N)cc1
- IC50 [2]: 14.6 µM (active)
- IC50 [5]: > 100 µM (inactive)
- IC50 (Prothrombin): 54.2 µM (active)

Structure (SMILES): N#C/C(=C\c1ccc(O)c(O)c1)C(=O)Nc1ccccc1
- IC50 (Large T antigen): 13.1 µM (active)
- IC50 [2]: 1.3 µM (active)
- IC50 [5]: > 100 µM (inactive)
- IC50 (Prothrombin): 67.9 µM (active)
- AC50 (Cytochrome P450 2D6): 39.8 µM (inconclusive)
